Experimental data reported in ChEMBL document CHEMBL2311352, “Discovery of 4-phenyl-2-phenylaminopyridine based TNIK inhibitors” (Bioorg Med Chem Lett, 2013).

Key:
[1] = target: Dual specificity mitogen-activated protein kinase kinase 2 (Homo sapiens) (UniProt P36507); assay: Inhibition of MEK2 (unknown origin) at 1 uM
[2] = target: Fibroblast growth factor receptor 2 (Homo sapiens) (UniProt P21802); assay: Inhibition of FGFR2 (unknown origin) at 1 uM
[3] = Apparent permeability across basolateral to apical side in human Caco2 cells; format: ADME, cell-based; conditions: Caco-2
[4] = target: Casein kinase II subunit alpha (Homo sapiens) (UniProt P68400); assay: Inhibition of CK2alpha (unknown origin) at 1 uM
[5] = target: Aurora kinase A (Homo sapiens) (UniProt O14965); assay: Inhibition of aurora A (unknown origin) at 1 uM
[6] = target: T1, TRAF2 and NCK-interacting protein kinase (Homo sapiens, UniProt Q9UKE5); assay: Competitive binding affinity to TNIK (unknown origin) in presence of ATP
Target sequence in this assay (Q9UKE5 whole entry): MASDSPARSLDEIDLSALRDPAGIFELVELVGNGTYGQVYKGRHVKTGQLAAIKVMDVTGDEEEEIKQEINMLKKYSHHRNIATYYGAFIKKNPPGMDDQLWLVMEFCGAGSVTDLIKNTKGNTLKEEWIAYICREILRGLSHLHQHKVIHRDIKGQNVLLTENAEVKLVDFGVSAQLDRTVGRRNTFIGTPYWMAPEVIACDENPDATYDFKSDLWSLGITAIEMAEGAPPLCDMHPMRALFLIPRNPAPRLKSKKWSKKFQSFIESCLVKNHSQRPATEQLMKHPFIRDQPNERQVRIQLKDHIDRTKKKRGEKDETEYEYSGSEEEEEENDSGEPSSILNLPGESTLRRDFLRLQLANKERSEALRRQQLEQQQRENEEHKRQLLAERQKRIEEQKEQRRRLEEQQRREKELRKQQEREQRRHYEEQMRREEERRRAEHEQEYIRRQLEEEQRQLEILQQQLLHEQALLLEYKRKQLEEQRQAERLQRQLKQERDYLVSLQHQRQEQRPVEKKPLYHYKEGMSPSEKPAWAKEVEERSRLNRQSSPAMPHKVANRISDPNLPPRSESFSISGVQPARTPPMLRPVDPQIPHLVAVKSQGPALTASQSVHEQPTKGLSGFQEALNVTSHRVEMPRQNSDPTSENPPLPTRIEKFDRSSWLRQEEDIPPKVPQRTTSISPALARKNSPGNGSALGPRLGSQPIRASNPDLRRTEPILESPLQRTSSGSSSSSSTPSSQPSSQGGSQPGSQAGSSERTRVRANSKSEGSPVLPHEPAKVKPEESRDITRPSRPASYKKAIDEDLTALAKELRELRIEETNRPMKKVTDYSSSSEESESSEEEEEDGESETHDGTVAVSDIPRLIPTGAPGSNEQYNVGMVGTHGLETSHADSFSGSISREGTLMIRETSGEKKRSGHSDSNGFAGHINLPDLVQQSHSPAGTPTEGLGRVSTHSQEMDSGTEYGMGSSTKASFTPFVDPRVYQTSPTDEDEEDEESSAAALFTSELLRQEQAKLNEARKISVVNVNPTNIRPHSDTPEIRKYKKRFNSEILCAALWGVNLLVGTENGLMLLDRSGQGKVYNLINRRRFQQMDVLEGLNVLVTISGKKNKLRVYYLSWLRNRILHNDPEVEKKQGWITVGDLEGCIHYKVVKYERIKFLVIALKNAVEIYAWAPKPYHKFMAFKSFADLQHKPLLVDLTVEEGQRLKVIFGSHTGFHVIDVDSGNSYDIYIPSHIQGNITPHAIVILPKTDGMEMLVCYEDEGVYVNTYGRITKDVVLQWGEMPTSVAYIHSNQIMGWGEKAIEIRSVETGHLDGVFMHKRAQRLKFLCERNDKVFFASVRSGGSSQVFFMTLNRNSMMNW

[7] = target: Serine/threonine-protein kinase 26 (Homo sapiens) (UniProt Q9P289); assay: Inhibition of MST4 (unknown origin) at 1 uM
[8] = target: Platelet-derived growth factor receptor beta (Homo sapiens) (UniProt P09619); assay: Inhibition of PDGFRbeta (unknown origin) at 1 uM
[9] = target: Fibroblast growth factor receptor 3 (Homo sapiens) (UniProt P22607); assay: Inhibition of FGFR3 (unknown origin) at 1 uM
[10] = target: Tyrosine-protein kinase JAK2 (Homo sapiens) (UniProt O60674); assay: Inhibition of JAK2 (unknown origin) at 1 uM
[11] = target: Dual specificity mitogen-activated protein kinase kinase 1 (Homo sapiens) (UniProt Q02750); assay: Inhibition of MEK1 (unknown origin) at 1 uM
[12] = target: Inhibitor of nuclear factor kappa-B kinase subunit epsilon (Homo sapiens) (UniProt Q14164); assay: Inhibition of IKKepsilon (unknown origin) at 1 uM
[13] = target: Serine/threonine-protein kinase Nek1 (Homo sapiens) (UniProt Q96PY6); assay: Inhibition of NEK1 (unknown origin) at 1 uM
[14] = target: Vascular endothelial growth factor receptor 3 (Homo sapiens) (UniProt P35916); assay: Inhibition of VEGFR3 (unknown origin) at 1 uM
[15] = target: Vascular endothelial growth factor receptor 1 (Homo sapiens) (UniProt P17948); assay: Inhibition of VEGFR1 (unknown origin) at 1 uM
[16] = target: Tyrosine-protein kinase SYK (Homo sapiens) (UniProt P43405); assay: Inhibition of SYK (unknown origin) at 1 uM
[17] = target: BDNF/NT-3 growth factors receptor (Homo sapiens) (UniProt Q16620); assay: Inhibition of TRKB (unknown origin) at 1 uM
[18] = Apparent permeability across apical to basolateral side in human Caco2 cells; format: ADME, cell-based; conditions: Caco-2
[19] = target: Tyrosine-protein kinase HCK (Homo sapiens) (UniProt P08631); assay: Inhibition of HCK (unknown origin) at 1 uM
[20] = target: Protein kinase C delta type (Homo sapiens) (UniProt Q05655); assay: Inhibition of PKCdelta (unknown origin) at 1 uM
[21] = target: Homeodomain-interacting protein kinase 4 (Homo sapiens) (UniProt Q8NE63); assay: Inhibition of HIPK4 (unknown origin) at 1 uM
[22] = target: Insulin-like growth factor 1 receptor (Homo sapiens) (UniProt P08069); assay: Inhibition of IGF1R (unknown origin) at 1 uM
[23] = target: CDK6/cyclin D1 (Homo sapiens) (UniProt P24385+Q00534); assay: Inhibition of CDK6/Cyclin D1 (unknown origin) at 1 uM; format: protein-complex assay
[24] = target: Angiopoietin-1 receptor (Homo sapiens) (UniProt Q02763); assay: Inhibition of TIE2 (unknown origin) at 1 uM
[25] = target: Mast/stem cell growth factor receptor Kit (Homo sapiens) (UniProt P10721); assay: Inhibition of c-KIT (unknown origin) at 1 uM
[26] = target: Death-associated protein kinase 1 (Homo sapiens) (UniProt P53355); assay: Inhibition of DAPK1 (unknown origin) at 1 uM
[27] = target: Tyrosine-protein kinase Fgr (Homo sapiens) (UniProt P09769); assay: Inhibition of FGR (unknown origin) at 1 uM
Caco-2 = assay: Ratio of apparent permeability across basolateral to apical side over apical to basolateral side in human Caco2 cells; format: ADME, cell-based
[28] = target: Homeodomain-interacting protein kinase 3 (Homo sapiens) (UniProt Q9H422); assay: Inhibition of HIPK3 (unknown origin) at 1 uM
[29] = target: Ephrin type-A receptor 1 (Homo sapiens) (UniProt P21709); assay: Inhibition of EPHA1 (unknown origin) at 1 uM
[30] = target: Ephrin type-B receptor 1 (Homo sapiens) (UniProt P54762); assay: Inhibition of EPHB1 (unknown origin) at 1 uM
[31] = target: Muscle, skeletal receptor tyrosine-protein kinase (Homo sapiens) (UniProt O15146); assay: Inhibition of MUSK (unknown origin) at 1 uM
[32] = target: Tyrosine-protein kinase Yes (Homo sapiens) (UniProt P07947); assay: Inhibition of YES (unknown origin) at 1 uM
[33] = target: T1, TRAF2 and NCK-interacting protein kinase; assay: Inhibition of TNIK-mediated TCF4/[…] transcription in human HCT116 cells by beta-lactamase reporter gene assay; format: cell-based, HCT-116
Target sequence in this assay (Q9UKE5 whole entry): as above

[34] = target: Proto-oncogene tyrosine-protein kinase receptor Ret (Homo sapiens) (UniProt P07949); assay: Inhibition of RET (unknown origin) at 1 uM
[35] = target: Vascular endothelial growth factor receptor 2 (Homo sapiens) (UniProt P35968); assay: Inhibition of VEGFR2 (unknown origin) at 1 uM
[36] = target: T1, TRAF2 and NCK-interacting protein kinase; assay: Inhibition of TNIK (unknown origin) by ADP glo luminescent assay
Target sequence in this assay (Q9UKE5 whole entry): as above

[37] = target: Aurora kinase B (Homo sapiens) (UniProt Q96GD4); assay: Inhibition of aurora B (unknown origin) at 1 uM
[38] = target: Proto-oncogene tyrosine-protein kinase ROS (Homo sapiens) (UniProt P08922); assay: Inhibition of ROS (unknown origin) at 1 uM
[39] = target: Tyrosine-protein kinase Fes/Fps (Homo sapiens) (UniProt P07332); assay: Inhibition of FES (unknown origin) at 1 uM
[40] = target: NT-3 growth factor receptor (Homo sapiens) (UniProt Q16288); assay: Inhibition of TRKC (unknown origin) at 1 uM
[41] = target: Platelet-derived growth factor receptor alpha (Homo sapiens) (UniProt P16234); assay: Inhibition of PDGFRalpha (unknown origin) at 1 uM
[42] = target: Receptor-type tyrosine-protein kinase FLT3 (Homo sapiens) (UniProt P36888); assay: Inhibition of FLT3 (unknown origin) at 1 uM
[43] = target: Aurora kinase C (Homo sapiens) (UniProt Q9UQB9); assay: Inhibition of aurora C (unknown origin) at 1 uM
[44] = target: T1, TRAF2 and NCK-interacting protein kinase; assay: Ratio of IC50 for TNIK-mediated TCF4/[…] transcription in human HCT116 cells to IC50 for TNIK (unknown origin); format: cell-based; conditions: HCT-116
Target sequence in this assay (Q9UKE5 whole entry, looked up): as the sequence (Q9UKE5 whole entry) above

[45] = target: Cyclin-dependent kinase 4/cyclin D1 (Homo sapiens) (UniProt P11802+P24385); assay: Inhibition of CDK4/cyclin D1 (unknown origin) at 1 uM; format: protein-complex assay

Dual specificity mitogen-activated protein kinase kinase 1 (Homo sapiens), sequence (Q02750 whole entry): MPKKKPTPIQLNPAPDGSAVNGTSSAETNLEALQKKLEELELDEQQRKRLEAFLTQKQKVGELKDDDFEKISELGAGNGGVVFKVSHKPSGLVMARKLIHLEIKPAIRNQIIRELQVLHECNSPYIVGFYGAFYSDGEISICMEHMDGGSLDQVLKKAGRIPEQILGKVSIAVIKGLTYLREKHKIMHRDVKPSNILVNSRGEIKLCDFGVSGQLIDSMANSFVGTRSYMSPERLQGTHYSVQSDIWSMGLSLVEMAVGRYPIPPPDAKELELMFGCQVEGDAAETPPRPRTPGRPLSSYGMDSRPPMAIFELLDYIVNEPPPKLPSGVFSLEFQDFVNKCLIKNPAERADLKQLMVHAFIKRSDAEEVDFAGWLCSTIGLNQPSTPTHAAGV
Tyrosine-protein kinase Fes/Fps (Homo sapiens), sequence (P07332 whole entry): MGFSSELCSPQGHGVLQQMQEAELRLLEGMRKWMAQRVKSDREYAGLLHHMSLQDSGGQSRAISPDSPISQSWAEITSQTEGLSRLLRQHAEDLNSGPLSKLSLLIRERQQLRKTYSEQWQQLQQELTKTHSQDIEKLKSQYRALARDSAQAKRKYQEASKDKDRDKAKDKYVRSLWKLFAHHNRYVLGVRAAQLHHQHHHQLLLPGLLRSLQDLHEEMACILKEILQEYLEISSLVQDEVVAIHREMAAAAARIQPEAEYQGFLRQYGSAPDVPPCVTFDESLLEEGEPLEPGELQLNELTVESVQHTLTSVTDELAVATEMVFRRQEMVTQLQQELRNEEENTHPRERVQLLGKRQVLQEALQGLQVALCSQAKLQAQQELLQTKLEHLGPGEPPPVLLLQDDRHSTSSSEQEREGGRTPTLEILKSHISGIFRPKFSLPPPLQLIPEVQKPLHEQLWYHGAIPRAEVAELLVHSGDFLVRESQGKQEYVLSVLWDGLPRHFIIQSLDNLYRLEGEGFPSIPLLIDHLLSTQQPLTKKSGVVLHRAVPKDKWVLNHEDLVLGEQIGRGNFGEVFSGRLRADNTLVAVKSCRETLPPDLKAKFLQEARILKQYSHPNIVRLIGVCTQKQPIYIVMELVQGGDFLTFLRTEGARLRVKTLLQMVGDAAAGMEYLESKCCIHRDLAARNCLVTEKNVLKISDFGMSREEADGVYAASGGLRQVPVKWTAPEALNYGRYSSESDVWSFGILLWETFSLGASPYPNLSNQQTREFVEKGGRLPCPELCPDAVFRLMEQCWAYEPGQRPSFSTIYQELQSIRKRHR
Platelet-derived growth factor receptor alpha (Homo sapiens), sequence (P16234 whole entry): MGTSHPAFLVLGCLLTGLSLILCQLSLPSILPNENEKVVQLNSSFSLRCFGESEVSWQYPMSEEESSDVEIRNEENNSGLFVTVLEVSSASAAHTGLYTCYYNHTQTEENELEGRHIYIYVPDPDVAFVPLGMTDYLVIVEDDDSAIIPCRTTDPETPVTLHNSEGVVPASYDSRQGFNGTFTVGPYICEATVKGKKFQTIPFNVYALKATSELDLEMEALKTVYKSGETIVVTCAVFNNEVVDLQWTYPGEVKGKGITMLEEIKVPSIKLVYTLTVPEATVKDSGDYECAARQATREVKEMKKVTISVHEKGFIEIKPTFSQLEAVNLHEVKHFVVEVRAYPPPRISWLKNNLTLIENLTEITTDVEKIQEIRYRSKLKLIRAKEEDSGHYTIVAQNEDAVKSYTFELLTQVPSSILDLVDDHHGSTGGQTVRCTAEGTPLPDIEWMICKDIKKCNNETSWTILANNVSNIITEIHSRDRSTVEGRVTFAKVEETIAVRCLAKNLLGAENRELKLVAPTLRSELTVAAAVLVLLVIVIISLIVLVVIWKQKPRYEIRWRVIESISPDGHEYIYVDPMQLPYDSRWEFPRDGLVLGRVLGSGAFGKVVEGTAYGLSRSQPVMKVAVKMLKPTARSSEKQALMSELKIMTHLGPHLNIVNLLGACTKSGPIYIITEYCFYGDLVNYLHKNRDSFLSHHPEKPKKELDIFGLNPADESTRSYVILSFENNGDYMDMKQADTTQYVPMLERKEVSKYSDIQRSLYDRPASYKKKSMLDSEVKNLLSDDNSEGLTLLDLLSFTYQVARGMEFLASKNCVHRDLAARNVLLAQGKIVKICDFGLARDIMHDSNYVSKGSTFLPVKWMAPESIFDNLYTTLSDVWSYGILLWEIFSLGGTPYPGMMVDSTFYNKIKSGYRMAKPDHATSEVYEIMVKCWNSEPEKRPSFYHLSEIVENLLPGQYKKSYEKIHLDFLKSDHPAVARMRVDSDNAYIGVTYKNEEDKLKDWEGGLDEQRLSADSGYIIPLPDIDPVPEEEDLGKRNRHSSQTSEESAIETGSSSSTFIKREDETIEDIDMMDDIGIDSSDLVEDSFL
Receptor-type tyrosine-protein kinase FLT3 (Homo sapiens), sequence (P36888 whole entry): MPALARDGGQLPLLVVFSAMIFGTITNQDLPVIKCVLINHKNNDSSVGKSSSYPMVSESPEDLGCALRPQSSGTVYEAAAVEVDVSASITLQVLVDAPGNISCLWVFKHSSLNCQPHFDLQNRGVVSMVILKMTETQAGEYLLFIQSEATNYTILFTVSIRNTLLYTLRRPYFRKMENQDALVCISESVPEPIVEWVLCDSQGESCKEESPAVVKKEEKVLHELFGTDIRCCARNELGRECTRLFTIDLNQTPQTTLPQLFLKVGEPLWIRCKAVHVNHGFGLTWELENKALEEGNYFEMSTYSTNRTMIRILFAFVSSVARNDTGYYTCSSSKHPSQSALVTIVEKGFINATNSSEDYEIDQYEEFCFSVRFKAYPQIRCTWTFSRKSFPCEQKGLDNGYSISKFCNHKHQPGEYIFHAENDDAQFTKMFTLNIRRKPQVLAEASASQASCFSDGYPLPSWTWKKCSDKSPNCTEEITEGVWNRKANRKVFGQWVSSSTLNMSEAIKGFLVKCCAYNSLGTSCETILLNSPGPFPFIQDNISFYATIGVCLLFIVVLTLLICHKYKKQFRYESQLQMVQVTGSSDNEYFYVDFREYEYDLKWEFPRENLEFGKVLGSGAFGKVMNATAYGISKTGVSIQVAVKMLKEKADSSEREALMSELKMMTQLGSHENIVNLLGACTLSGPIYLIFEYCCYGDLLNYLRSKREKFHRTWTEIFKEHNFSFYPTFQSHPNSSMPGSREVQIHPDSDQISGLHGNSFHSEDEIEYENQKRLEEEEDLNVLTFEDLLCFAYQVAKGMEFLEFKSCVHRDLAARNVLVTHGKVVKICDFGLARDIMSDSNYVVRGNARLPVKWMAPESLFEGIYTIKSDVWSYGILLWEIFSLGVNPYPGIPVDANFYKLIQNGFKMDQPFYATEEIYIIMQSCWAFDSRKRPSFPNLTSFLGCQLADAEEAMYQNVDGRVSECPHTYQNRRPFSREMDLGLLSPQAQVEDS
Aurora kinase C (Homo sapiens), sequence (Q9UQB9 whole entry): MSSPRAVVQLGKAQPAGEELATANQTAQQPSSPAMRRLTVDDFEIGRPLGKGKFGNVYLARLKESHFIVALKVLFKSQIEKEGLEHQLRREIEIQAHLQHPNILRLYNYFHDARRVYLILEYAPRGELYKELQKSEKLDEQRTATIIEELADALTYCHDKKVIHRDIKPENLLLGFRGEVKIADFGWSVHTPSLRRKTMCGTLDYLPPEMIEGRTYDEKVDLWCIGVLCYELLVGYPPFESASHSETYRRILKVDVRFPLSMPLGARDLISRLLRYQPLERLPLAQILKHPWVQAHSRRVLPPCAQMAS

inhibition [1]: > 80%
inhibition [2]: > 95%
Papp B→A [3]: 7.7 ×10⁻⁶ cm/s
inhibition [4]: > 80%
inhibition [5]: > 95%
Kd [6]: 86 nM
inhibition [7]: 50%
inhibition [8]: > 80%
inhibition [9]: > 95%
inhibition [10]: > 95%
inhibition [11]: > 80%
inhibition [12]: > 95%
inhibition [13]: > 80%
inhibition [14]: > 95%
inhibition [15]: > 95%
inhibition [16]: > 80%
inhibition [17]: > 80%
Papp A→B [18]: 8 ×10⁻⁶ cm/s
inhibition [19]: 50%
inhibition [20]: 50%
inhibition [21]: > 80%
inhibition [22]: > 80%
inhibition [23]: > 80%
inhibition [24]: 50%
inhibition [25]: > 80%
inhibition [27]: 50%
Ratio (Caco-2): 0.96
inhibition [28]: > 80%
inhibition [29]: 50%
inhibition [30]: 50%
inhibition [31]: > 80%
inhibition [32]: > 80%
IC50 [33]: 350 nM
inhibition [34]: > 95%
inhibition [35]: > 95%
IC50 [36]: 65 nM
inhibition [37]: > 80%
inhibition [38]: > 95%
inhibition [39]: > 80%
inhibition [40]: > 95%
inhibition [41]: > 80%
inhibition [42]: > 95%
inhibition [43]: > 80%
Ratio IC50 [44]: 5.4
inhibition [45]: > 80%
SMILES: COc1cc(Nc2ncc(Cl)c(-c3cccc(CC#N)c3)n2)ccc1N1CCN(C)CC1
inhibition [26]: > 80%
